Consider four molecules from ChEMBL document CHEMBL1201862, “PubChem BioAssay data set” (2004).

In test [1] the target is Protein kinase C theta type (Homo sapiens, UniProt Q04759). Nature of the test: Navigating the Kinome. Panel member name: PRKCQ. Format: functional.
Test [2] concerns the target Dual specificity mitogen-activated protein kinase kinase 1 (Homo sapiens, UniProt Q02750). In words: Navigating the Kinome. Panel member name: MAP2K1. Format: functional.
The target in test [3] is ALK tyrosine kinase receptor (Homo sapiens, UniProt Q9UM73). It is filed as functional.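 Note: ALK tested as one member of a kinase panel screen.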
Test [4] concerns the target Serine/threonine-protein kinase PAK 4 (Homo sapiens, UniProt O96013). It is filed as functional.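 Note: value obtained within a kinome profiling panel in which PAK4 was one of the panel members.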
The target in test [5] is T1, Serine/threonine-protein kinase TAO1 (Homo sapiens, UniProt Q7L7X3).
T1 sequence (Q7L7X3 whole entry): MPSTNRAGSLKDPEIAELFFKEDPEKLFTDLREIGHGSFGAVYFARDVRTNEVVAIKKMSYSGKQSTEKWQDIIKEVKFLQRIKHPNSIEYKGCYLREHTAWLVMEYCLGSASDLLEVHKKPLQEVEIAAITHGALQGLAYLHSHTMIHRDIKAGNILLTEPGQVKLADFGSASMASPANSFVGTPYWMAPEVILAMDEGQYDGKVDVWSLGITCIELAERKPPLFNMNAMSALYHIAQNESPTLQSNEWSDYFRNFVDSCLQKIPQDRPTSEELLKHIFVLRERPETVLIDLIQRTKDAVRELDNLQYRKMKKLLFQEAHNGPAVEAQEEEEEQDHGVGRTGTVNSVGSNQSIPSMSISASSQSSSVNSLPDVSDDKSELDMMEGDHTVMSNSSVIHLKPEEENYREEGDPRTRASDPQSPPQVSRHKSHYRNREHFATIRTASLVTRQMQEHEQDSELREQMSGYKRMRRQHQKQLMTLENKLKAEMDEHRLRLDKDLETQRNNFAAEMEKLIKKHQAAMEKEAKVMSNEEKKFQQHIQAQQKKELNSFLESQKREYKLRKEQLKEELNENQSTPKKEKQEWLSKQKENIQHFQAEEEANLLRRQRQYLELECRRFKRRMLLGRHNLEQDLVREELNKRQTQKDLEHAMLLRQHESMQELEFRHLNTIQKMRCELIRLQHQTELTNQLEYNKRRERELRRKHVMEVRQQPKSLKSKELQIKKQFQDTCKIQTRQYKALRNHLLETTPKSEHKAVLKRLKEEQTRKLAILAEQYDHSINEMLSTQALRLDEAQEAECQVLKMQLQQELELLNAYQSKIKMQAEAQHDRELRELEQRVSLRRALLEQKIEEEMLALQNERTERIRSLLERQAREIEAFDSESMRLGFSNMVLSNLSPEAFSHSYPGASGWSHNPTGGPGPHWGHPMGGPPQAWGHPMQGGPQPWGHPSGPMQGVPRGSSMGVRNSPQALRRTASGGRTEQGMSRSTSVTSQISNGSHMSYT
It is filed as functional.

Test [6] has as its target T2, Serine/threonine-protein kinase Chk1 (Homo sapiens, UniProt O14757).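 Note: measured as one member of a kinome-wide kinase profiling panel.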
T2 sequence (O14757 whole entry): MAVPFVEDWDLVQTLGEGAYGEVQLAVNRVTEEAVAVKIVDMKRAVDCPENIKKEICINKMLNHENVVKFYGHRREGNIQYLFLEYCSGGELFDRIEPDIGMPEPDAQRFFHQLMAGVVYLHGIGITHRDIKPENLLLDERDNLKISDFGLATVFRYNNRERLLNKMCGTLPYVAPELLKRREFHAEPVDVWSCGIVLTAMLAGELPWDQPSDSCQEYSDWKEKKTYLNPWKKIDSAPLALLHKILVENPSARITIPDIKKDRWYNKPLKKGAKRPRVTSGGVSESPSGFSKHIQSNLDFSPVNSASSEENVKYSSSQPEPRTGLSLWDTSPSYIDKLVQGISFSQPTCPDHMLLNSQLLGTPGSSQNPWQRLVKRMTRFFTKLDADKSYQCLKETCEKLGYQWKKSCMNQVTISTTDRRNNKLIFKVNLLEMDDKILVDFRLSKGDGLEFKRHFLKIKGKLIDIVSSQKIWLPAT
Format: functional.

Test [7] concerns the target Vascular endothelial growth factor receptor 2 (Homo sapiens, UniProt P35968). It is filed as functional.
Test [8] concerns the target Cyclin-dependent kinase 5 (Homo sapiens, UniProt Q00535). Format: functional.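 Note: CDK5 measured as one member of a kinase profiling panel.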
Test [9] deals with Dual specificity tyrosine-phosphorylation-regulated kinase 1B (Homo sapiens, UniProt Q9Y463). In words: Navigating the Kinome. Panel member name: DYRK1B. Format: functional.
Chain of Dual specificity tyrosine-phosphorylation-regulated kinase 1B (Q9Y463 whole entry): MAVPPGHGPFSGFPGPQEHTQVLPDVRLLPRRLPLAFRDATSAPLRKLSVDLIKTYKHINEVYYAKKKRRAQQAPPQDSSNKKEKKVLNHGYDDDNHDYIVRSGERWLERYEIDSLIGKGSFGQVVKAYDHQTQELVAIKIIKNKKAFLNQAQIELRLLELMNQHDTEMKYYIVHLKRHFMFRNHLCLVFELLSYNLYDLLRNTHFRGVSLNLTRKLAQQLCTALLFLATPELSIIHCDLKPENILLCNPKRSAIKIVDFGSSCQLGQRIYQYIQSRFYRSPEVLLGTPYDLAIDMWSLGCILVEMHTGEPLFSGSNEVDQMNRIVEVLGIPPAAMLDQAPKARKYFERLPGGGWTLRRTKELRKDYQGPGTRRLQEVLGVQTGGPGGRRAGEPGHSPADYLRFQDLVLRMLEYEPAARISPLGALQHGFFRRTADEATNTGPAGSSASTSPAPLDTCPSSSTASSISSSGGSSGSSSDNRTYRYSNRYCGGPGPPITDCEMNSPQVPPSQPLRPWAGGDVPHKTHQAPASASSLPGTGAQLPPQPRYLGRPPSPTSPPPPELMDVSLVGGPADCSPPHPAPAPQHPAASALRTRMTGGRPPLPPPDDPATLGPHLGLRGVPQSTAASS
Test [10] deals with T3, cAMP-dependent protein kinase catalytic subunit PRKX (Homo sapiens, UniProt P51817).
T3 sequence (P51817 whole entry): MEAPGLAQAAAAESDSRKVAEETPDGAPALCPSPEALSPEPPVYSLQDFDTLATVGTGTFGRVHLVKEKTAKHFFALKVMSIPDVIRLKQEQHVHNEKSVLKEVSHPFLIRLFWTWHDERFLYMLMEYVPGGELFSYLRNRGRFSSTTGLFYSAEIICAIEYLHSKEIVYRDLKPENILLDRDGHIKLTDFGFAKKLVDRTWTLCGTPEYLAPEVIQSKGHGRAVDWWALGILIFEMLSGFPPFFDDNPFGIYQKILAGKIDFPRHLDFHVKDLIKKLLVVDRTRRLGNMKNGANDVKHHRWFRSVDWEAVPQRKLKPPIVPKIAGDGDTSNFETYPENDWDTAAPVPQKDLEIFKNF
Format: functional.

In test [11] the target is Vascular endothelial growth factor receptor 1 (Homo sapiens, UniProt P17948). It is filed as functional.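 Note: measured within a kinome-wide profiling panel, FLT1 as the panel member.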
Chain of Vascular endothelial growth factor receptor 1 (P17948 whole entry): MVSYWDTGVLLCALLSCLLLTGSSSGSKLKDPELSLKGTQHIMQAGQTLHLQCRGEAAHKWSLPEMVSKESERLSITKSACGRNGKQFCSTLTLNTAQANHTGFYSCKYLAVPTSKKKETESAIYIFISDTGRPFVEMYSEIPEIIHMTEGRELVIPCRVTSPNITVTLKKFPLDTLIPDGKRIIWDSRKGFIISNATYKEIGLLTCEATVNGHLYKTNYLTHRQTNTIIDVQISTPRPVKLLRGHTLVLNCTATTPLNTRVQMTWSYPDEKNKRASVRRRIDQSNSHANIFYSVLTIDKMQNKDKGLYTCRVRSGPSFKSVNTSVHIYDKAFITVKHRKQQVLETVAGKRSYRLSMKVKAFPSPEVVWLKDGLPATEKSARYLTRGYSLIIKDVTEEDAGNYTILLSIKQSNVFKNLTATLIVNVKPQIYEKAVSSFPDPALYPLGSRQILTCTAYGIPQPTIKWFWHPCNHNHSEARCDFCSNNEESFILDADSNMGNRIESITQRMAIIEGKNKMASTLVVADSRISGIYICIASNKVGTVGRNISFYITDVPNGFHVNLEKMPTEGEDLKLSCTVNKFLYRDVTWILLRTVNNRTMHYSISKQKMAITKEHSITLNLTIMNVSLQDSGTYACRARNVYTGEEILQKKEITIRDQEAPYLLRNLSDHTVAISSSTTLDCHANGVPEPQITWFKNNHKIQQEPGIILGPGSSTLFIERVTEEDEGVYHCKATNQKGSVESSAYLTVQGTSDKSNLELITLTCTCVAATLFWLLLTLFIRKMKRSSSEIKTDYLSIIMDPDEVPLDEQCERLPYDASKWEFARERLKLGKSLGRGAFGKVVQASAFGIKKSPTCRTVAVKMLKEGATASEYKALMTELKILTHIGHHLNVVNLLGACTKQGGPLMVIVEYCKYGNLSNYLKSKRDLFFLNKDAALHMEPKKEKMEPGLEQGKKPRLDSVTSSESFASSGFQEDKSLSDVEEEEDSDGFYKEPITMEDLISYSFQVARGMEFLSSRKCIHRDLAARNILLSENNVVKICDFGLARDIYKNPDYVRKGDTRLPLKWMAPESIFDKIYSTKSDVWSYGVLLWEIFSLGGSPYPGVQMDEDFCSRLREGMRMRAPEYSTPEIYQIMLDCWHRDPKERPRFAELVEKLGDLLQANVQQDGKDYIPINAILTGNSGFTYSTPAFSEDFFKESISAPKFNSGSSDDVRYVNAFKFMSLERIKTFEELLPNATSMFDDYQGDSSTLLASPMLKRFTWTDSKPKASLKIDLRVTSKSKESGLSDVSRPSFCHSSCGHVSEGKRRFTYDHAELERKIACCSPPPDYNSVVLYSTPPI
The target in test [12] is Glycogen synthase kinase-3 beta (Homo sapiens, UniProt P49841). Format: functional.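 Note: value comes from a broad kinome profiling panel, with GSK3B as the panel member.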
Chain of Glycogen synthase kinase-3 beta (P49841 whole entry): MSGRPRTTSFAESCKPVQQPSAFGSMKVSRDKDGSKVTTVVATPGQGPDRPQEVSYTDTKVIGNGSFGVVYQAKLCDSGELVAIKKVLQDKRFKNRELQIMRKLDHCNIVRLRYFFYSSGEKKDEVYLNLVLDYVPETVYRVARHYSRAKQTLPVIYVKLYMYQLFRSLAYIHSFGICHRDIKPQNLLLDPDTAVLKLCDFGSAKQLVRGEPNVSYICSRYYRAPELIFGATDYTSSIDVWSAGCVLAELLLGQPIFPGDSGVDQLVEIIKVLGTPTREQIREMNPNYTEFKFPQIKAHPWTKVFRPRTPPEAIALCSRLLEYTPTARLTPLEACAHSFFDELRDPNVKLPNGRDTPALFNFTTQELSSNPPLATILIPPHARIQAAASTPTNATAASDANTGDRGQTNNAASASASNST
Test [13] addresses Dual specificity tyrosine-phosphorylation-regulated kinase 1A (Homo sapiens, UniProt Q13627). Format: functional.
Test [14] deals with Leukocyte tyrosine kinase receptor (Homo sapiens, UniProt P29376). Nature of the test: Navigating the Kinome. Panel member name: LTK. Format: functional.
Chain of Leukocyte tyrosine kinase receptor (P29376 whole entry): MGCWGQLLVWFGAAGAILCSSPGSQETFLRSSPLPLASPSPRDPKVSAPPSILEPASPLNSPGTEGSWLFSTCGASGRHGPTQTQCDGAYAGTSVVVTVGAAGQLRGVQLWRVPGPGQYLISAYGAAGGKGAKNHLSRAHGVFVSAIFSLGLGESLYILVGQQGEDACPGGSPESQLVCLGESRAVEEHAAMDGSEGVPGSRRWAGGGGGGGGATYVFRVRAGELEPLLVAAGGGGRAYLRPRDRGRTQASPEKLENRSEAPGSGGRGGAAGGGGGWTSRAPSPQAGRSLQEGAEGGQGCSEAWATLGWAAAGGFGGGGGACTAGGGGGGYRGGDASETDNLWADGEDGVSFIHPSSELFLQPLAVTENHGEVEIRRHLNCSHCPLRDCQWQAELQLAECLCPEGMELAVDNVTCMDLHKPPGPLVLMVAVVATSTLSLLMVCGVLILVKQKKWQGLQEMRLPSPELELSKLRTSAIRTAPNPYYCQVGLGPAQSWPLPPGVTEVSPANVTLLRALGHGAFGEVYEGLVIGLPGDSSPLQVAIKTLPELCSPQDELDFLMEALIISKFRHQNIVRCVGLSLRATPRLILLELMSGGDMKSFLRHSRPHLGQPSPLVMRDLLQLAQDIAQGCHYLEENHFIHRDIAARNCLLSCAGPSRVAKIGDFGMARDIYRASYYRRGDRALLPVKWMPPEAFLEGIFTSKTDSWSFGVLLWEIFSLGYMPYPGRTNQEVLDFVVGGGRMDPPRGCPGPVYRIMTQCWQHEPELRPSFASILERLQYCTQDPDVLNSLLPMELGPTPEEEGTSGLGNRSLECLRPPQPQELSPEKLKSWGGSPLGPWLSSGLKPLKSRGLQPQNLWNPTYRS
The target of the next test is T4, Caspase-6 (Homo sapiens, UniProt P55212).
T4 sequence (P55212 whole entry): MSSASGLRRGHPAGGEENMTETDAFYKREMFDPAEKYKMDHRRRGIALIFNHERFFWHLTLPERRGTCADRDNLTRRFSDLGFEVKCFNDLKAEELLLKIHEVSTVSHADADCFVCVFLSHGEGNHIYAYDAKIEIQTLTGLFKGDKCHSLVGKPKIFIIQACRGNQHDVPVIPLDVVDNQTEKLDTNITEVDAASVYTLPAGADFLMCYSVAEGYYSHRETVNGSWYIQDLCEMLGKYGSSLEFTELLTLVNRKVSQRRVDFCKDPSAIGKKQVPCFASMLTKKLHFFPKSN
Nature of the test: human caspase-6 inhibitors, dose response, biochemical, VEID-R110 fluorescence, cherry-pick (AID 720632).

The source made the active and inactive calls.

Chain of Cyclin-dependent kinase 5 (Q00535 whole entry): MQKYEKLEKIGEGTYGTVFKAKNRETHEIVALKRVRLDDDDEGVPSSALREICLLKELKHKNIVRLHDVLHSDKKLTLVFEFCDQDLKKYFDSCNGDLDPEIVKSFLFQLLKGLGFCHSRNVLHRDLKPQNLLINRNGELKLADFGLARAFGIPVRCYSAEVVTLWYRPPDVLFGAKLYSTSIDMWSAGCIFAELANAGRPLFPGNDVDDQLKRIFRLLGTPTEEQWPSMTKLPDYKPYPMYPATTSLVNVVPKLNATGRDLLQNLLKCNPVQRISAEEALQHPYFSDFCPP
Chain of Serine/threonine-protein kinase PAK 4 (O96013 whole entry): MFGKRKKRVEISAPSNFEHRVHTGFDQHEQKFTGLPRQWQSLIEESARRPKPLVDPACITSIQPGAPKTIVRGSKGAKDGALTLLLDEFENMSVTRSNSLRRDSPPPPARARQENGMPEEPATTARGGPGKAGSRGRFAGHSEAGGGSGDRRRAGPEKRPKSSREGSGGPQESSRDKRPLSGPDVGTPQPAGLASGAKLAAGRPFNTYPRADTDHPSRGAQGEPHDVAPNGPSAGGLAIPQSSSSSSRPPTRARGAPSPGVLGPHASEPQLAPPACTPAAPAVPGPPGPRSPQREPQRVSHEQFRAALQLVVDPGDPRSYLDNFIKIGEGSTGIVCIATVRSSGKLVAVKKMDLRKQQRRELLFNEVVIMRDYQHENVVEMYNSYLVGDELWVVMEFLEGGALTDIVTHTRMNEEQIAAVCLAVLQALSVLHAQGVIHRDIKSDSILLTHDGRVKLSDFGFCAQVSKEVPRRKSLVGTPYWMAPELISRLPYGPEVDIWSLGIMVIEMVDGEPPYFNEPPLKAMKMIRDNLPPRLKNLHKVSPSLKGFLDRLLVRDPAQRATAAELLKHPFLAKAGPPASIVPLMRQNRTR
Chain of Protein kinase C theta type (Q04759 whole entry): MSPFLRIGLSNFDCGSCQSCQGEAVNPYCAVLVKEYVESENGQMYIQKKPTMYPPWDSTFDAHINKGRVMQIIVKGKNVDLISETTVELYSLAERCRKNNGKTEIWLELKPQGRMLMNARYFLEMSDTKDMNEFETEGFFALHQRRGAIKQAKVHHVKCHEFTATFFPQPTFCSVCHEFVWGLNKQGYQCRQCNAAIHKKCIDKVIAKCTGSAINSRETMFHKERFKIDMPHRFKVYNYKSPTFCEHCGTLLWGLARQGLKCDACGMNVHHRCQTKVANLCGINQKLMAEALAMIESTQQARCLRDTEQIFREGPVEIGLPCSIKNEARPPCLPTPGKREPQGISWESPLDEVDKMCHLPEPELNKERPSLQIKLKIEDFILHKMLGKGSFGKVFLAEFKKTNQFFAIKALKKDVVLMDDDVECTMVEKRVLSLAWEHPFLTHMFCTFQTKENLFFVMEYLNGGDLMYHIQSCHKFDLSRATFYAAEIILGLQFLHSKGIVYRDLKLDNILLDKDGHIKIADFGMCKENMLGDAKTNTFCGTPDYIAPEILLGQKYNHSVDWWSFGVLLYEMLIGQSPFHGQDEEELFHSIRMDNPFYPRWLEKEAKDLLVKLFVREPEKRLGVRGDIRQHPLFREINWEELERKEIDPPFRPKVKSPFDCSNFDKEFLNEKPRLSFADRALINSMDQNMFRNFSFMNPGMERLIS

For `OC1CCC(Nc2nc(Cl)cc(-c3c[nH]c4ncccc34)n2)CC1` (configuration not stated), the Ki in test [1] was 15.8 nM (active); in test [2], 31.6 nM (active); in test [3], > 1.26 µM (inactive); in test [4], 25.1 nM (active); in [5] it was 0.501 µM (active); in test [6], 398 nM (active). Further, the Ki in test [7] was 251 nM (active); in test [8], 10 nM (active); in test [9], 2.51 nM (active); in [10], 63.1 nM (active); in test [11] it was 158 nM (active); in [12], 50.1 nM (active). Also, the Ki in [13] is > 2 nM (inactive); in [14] it was 251 nM (active). Besides, the negative logarithm of the Ki (pKi) was 7.8 in [1]; 7.5 in test [2]; 7.6 in [4]; 6.3 in test [5]; 6.4 in [6]; 6.6 in test [7]. Further, the pKi amounted to 8 in test [8]; 8.6 in test [9]; 7.2 in test [10]; 6.8 in [11]; 7.3 in test [12]; 6.6 in [14].

As for `O=C(COC(=O)c1ccc([N+](=O)[O-])s1)Nc1ccc(F)cc1`, the AC50 on Caspase-6 was 1.96 µM (active).

Regarding `COc1cccc(CNC(=O)c2cnc(-c3ccncc3)nc2)c1`, the inhibition constant (Ki) is 1000 nM (active) in [1]; > 3160 nM (inactive) in [2]; > 6.31 µM (inactive) in test [3]; > 5010 nM (inactive) in test [4]; > 6.31 µM (inactive) in test [5]; > 3160 nM (inactive) in [6]. In addition, the Ki was > 2510 nM (inactive) in test [7]; > 3160 nM (inactive) in [8]; > 2510 nM (inactive) in [9]; 2000 nM (active) in test [10]; > 3980 nM (inactive) in [11]; > 3980 nM (inactive) in test [12]. In addition, the Ki in test [13] is > 2000 nM (inactive); in test [14] it was > 2510 nM (inactive).

In the case of `CCN(CC)CCCC(C)n1c2nc(=O)[nH]c(=O)c-2nc2cc(Cl)ccc21` (configuration not stated), the AC50 on Caspase-6 is 0.305 µM (active).
